Measured values published in PubChem BioAssay AID488878 (Sanford-Burnham Center for Chemical Genomics, 2010).
Calls of active or inactive are those of the source. The rule behind the calls is not given here.

Target: Alkaline phosphatase, placental type (Homo sapiens) (UniProt P05187)
Assay: PLAP enzyme activators, dose response, mouse IAP activator project, biochemical, uHTS hits (AID 488878)
Settings: purified human PLAP enzyme activity

Row | SMILES | EC50
1 | O=c1oc2cc(O)ccc2s1 | 12 µM
2 | O=C(COC(=O)c1ccc(Br)o1)Nc1ncc([N+](=O)[O-])s1 | 60.5 µM
3 | CN(CCO)c1ccc(C=NNc2ccc([N+](=O)[O-])cc2S(=O)(=O)Nc2ccccc2C(=O)O)cc1 | 26 µM
4 | COc1ccccc1CNC(=O)CCNS(=O)(=O)c1ccc2[nH]c(=O)oc2c1 | 49 µM
5 | N#C/C(=C\c1coc2ccc(O)cc2c1=O)C(=O)Nc1nc2ccccc2s1 | 91.1 µM
6 | Oc1ccc(/C=N/Nc2cc(N3CCCC3)nc(N3CCCC3)n2)cc1O | > 100 µM (inactive)
7 | Cc1c(CN2CCC(C(=O)Nc3cccc(-c4cccc(Cl)c4)c3)CC2)cnn1C | 71.6 µM
8 | O=C(/C=C/c1ccco1)NC(=S)Nc1cccc(C(=O)O)c1 | 46.8 µM
9 | CC1CC(=O)c2c(cc3c(-c4c(O)cc(O)c5c(O)c6c(cc45)OC(C)CC6=O)c(O)cc(O)c3c2O)O1 (configuration not stated) | 21.1 µM
10 | Oc1ccc(-c2cn3c(n2)SCC3)cc1O | 55.6 µM
11 | O=C(Cc1nnc(NC(=O)c2ccccc2)s1)N/N=C\c1ccc(O)c(O)c1 | > 100 µM (inactive)
12 | N#Cc1cccc(NC(=O)CCNS(=O)(=O)c2ccc3[nH]c(=O)oc3c2)c1 | 89.7 µM
13 | O=C(CSc1nc2ccccc2o1)N/N=C/c1ccc(O)c(O)c1 | 67.5 µM
14 | O=c1cc(-c2ccc(O)cc2)oc2c(O)c(O)c(O)c(O)c12 | 59.6 µM
15 | COc1ccc(N=C2SC(C(N)=O)CC(=O)N2CCc2ccc(OC)c(OC)c2)cc1 (configuration not stated) | 26.1 µM
16 | O=C(CCO)c1ccc(O)cc1 | 18.9 µM
17 | O=C(O)Cc1ccc(O)c(O)c1 | > 100 µM (inactive)
18 | O=C(N/N=C/c1ccc(O)c(O)c1)N/N=C/c1ccc(O)c(O)c1 | 29.6 µM
19 | Oc1ccc(/C=N/N=C/c2ccc(O)c(O)c2)cc1O | 68 µM
20 | Cc1cc(C)c(S(=O)(=O)Nc2ccc(O)c(Sc3ncn[nH]3)c2)cc1C | 55 µM
21 | COc1ccc(OC)c(NC(=O)CCNS(=O)(=O)c2ccc3[nH]c(=O)oc3c2)c1 | > 100 µM (inactive)
22 | O=C1/C(=C/C=C/c2ccco2)SC(=S)N1c1ccc(O)cc1 | 61.8 µM
23 | Cc1ccc(NC(=O)CCNS(=O)(=O)c2ccc3[nH]c(=O)oc3c2)c(Cl)c1 | 26.3 µM

Row | SMILES | EC50
24 | Cc1ccc(CN2C3CCCC2CC(NC(=S)NCc2ccccc2)C3)cc1 (configuration not stated) | > 100 µM (inactive)
25 | O=S(=O)(c1cc(O)ccc1O)c1cccc2c(S(=O)(=O)c3cc(O)ccc3O)cccc12 | 24.3 µM
26 | O=C(CN1CCN(c2ccccc2F)CC1)c1ccc(O)c(O)c1 | > 100 µM (inactive)
27 | COc1ccc(OC)c(S(=O)(=O)Nc2ccc(O)c(Sc3ncn[nH]3)c2)c1 | 57.5 µM
28 | O=C(O)C(c1ccccc1)N1C(=O)/C(=C\c2ccc(O)c(O)c2)SC1=S (configuration not stated) | 62.9 µM
29 | NS(=O)(=O)c1cc(C(=O)NC2CCSc3ccccc32)ccc1Cl (configuration not stated) | 63.9 µM
30 | Cc1ccc(N2C(=O)/C(=C/c3ccc(CN(CCC#N)S(C)(=O)=O)o3)C(=O)NC2=S)cc1 | 40.7 µM
31 | CC(C(=O)Nc1ccc(C(=O)O)c(O)c1)N1C(=O)/C(=C\c2ccco2)SC1=S (configuration not stated) | 76.8 µM
32 | Oc1cc(O)c2c(c1)O[C@H](c1ccc(O)c(O)c1)[C@H](O)C2 | 51.3 µM
33 | COc1cccc(C(C)NC(=O)Nc2cccc(C(F)(F)F)c2)c1 (configuration not stated) | > 100 µM (inactive)
34 | COc1cccc(CNC(=O)CCNS(=O)(=O)c2ccc3[nH]c(=O)oc3c2)c1 | > 100 µM (inactive)
35 | O=C(Nc1ccc(Cl)c(C(F)(F)F)c1)NC1CC2CCCC(C1)N2Cc1ccccc1 (configuration not stated) | > 100 µM (inactive)
36 | CC(C)c1ccc(NC(=O)NC2CCN(CC(=O)Nc3cccc4ccccc34)CC2)cc1 | 55.9 µM
37 | Cc1ccc(/C=C2/SC(=O)NC2=S)o1 | 55.9 µM
38 | O=C1CC(c2ccc(O)c(O)c2)Oc2cc(O)cc(O)c21 (configuration not stated) | 60.3 µM
39 | CC1(C(=O)NNC(=O)c2ccc(=O)oc2)CC1Br (configuration not stated) | 57.9 µM
40 | O=C(CN1C(=O)/C(=C/c2ccco2)SC1=S)Nc1ccc(C(=O)O)c(O)c1 | > 100 µM (inactive)
41 | O=c1[nH]c(/C=C\c2ccc(O)c(O)c2)nc(O)c1[N+](=O)[O-] | > 100 µM (inactive)
42 | COc1cc(OC)c(NC(=O)CN(C)S(=O)(=O)c2ccc3[nH]c(=O)oc3c2)cc1Cl | 69.8 µM
43 | O=C(N/N=C/c1ccc(O)cc1O)C(=O)N/N=C/c1ccc(O)cc1O | > 100 µM (inactive)
44 | Cc1cc(/C=C2\SC(=S)NC2=O)c(C)[nH]1 | 61.1 µM
45 | O=C1NC(=S)NC(=O)C1=Cc1ccc2c(c1)CCN2CCCCl | 57.5 µM
46 | S=C(NCc1ccccc1)NC1CCSc2ccccc21 (configuration not stated) | > 100 µM (inactive)

Row | SMILES | EC50
47 | Cc1ccc(C)c(NC(=O)CCNS(=O)(=O)c2ccc3[nH]c(=O)oc3c2)c1 | > 100 µM (inactive)
48 | O=[N+]([O-])c1cc(S(=O)(=O)c2ccc(O)c([N+](=O)[O-])c2)ccc1O | > 100 µM (inactive)
49 | Cc1ccc(C(=O)Nc2nnc(CC(=O)N/N=C/c3ccc(O)c(O)c3)s2)cc1 | 49.7 µM
50 | O=C(CCN1C(=O)/C(=C/c2ccco2)SC1=S)Nc1ccc(C(=O)O)c(O)c1 | 27.6 µM
51 | O=C(NNC(=S)NC(=O)c1cccs1)c1ccc(O)cc1 | 36.8 µM
52 | O=C(O)CC(CCc1ccccc1)OC1OC(CO)C(O)C(O)C1O (configuration not stated) | 73 µM
53 | O=C(O)CC(C(=O)O)N1C(=O)/C(=C/c2ccc(-c3nc4ccccc4s3)o2)SC1=S (configuration not stated) | 60.8 µM
54 | Nc1cc2nc3ccccc3oc-2cc1=O | 57.2 µM
55 | CNc1nnc(-c2cc3ccccc3oc2=O)s1 | > 100 µM (inactive)
56 | O=C(NN1C(=O)/C(=C/C=C/c2ccco2)SC1=S)c1ccncc1 | > 100 µM (inactive)
57 | O=C1C=C(O)c2c(O)cc(O)c(O)c2C1=O | > 100 µM (inactive)
58 | CN(CC(=O)Nc1cccc(Cl)c1)S(=O)(=O)c1ccc2[nH]c(=O)oc2c1 | > 100 µM (inactive)
59 | Oc1ccc(-c2csc(Nc3ccccn3)n2)cc1O | 45.8 µM
60 | COc1cc(/C=C(\C#N)C(=O)c2ccc(O)c(O)c2)cc(I)c1O | > 100 µM (inactive)
61 | O=C(N/N=C/c1ccc([N+](=O)[O-])o1)c1sc2ccccc2c1Cl | > 100 µM (inactive)
62 | NS(=O)(=O)c1ccc(-c2ccc(/C=C3\SC(=S)N(C4CCS(=O)(=O)C4)C3=O)o2)cc1 (configuration not stated) | 17.6 µM
63 | CN(C)c1ccc(N=Nc2nc3ccccc3n2C)cc1 | 48.3 µM
64 | CCn1nc(C)c(CN2CCC(C(=O)Nc3cccc(-c4cccc(F)c4)c3)CC2)c1C | 65.1 µM
65 | NS(=O)(=O)c1ccc(NC(=S)NC(=O)/C=C/c2ccco2)cc1 | > 100 µM (inactive)
66 | O=C(CCCN1C(=O)/C(=C\c2ccco2)SC1=S)Nc1ccc(O)cc1C(=O)O | 44.7 µM
67 | O=C1/C(=C/C=C/c2ccco2)SC(=S)N1NS(=O)(=O)c1ccccc1 | > 100 µM (inactive)
68 | Cc1cc(=O)[nH]c(N/N=C/c2ccc(O)c(O)c2)n1 | 65.7 µM
69 | CCOc1cc(/C=C2\CCC/C(=C\c3cc(Cl)c(O)c(OCC)c3)C2=O)cc(Cl)c1O | > 100 µM (inactive)

Row | SMILES | EC50
70 | CSC1=NSC2=NC(=O)/C(=C/c3coc4ccc(O)cc4c3=O)C(=N)N12 | 27.2 µM
71 | C=CCn1c(SCC(=O)c2ccc(O)c(O)c2)nnc1-c1cccc(OC)c1 | 47.8 µM
72 | CCN1/C(=C/C=C/c2oc3ccc(-c4ccccc4)cc3[n+]2CC)Oc2ccc(-c3ccccc3)cc21 | 24.5 µM
73 | CCN1/C(=C/c2ccc3cc(C)ccc3[n+]2CC)Sc2ccc3sccc3c21 | 65.3 µM
74 | N#C/C(=C\c1ccc(O)c(O)c1)C(=O)c1ccc(O)c(O)c1 | 8.03 µM
75 | NNC(=O)c1cc(O)c(O)c(O)c1 | 69.3 µM
76 | CCOC(=O)CN1C(=O)/C(=C2\SC(=S)N(NC(=O)c3cccnc3)C2=O)c2ccccc21 | 35.1 µM
77 | COc1ccc(S(=O)(=O)Nc2ccc(O)c(Sc3ncn[nH]3)c2)cc1 | 68.6 µM
78 | Cc1ccc(NC(=O)CN(C)S(=O)(=O)c2ccc3[nH]c(=O)oc3c2)c(C)c1 | 64.6 µM
79 | C[N+](C)(C)C(Cc1ccccc1)C(=O)[O-] (configuration not stated) | 59.7 µM
80 | Oc1cc2c(cc1O)C1c3ccc(O)c(O)c3OCC1(O)C2 (configuration not stated) | 60.4 µM
81 | Cc1ccc(NS(=O)(=O)c2ccc3[nH]c(=O)oc3c2)c(C)c1 | 89 µM
82 | Oc1ccc(C[C@H]2NCCc3cc(O)c(O)cc32)cc1O | > 100 µM (inactive)
83 | Cc1ccc(NC(=O)CCNS(=O)(=O)c2ccc3[nH]c(=O)oc3c2)cc1F | > 100 µM (inactive)
84 | CCOC(=O)C(C)Sc1nc2c(c(=O)[nH]c(=O)n2C)n1C/C=C(/C)Cl (configuration not stated) | 84.8 µM
85 | CCn1c(CSc2nc3ccccc3s2)nnc1SCC(=O)c1ccc(O)c(O)c1 | 31.7 µM
86 | COc1ccc(NC(=O)CCNS(=O)(=O)c2ccc3[nH]c(=O)oc3c2)cc1Cl | 54 µM
87 | Cc1cc(O)c2c(c1O)C(=O)[C@]13C(=C2O)C(=O)[C@@H]2[C@@H](O)[C@H]1[C@@H]1[C@H](O)[C@H]3C(=O)C3=C(O)c4c(O)cc(C)c(O)c4C(=O)[C@]312 | 66.3 µM
88 | O=C(N/N=C/c1cn(Cc2cccc(F)c2)c2ccccc12)c1cc(O)cc(O)c1 | 53.3 µM
89 | O=C(CSc1n[nH]c(-c2ccccc2)n1)c1ccc(O)c(O)c1 | 65.3 µM
90 | O=C(CN1C(=O)/C(=C/c2ccco2)SC1=S)NC1CCS(=O)(=O)C1 (configuration not stated) | > 100 µM (inactive)
91 | O=C1NC(=S)NC(=O)C1=Cc1ccc(Br)s1 | 59.6 µM
92 | Cc1ccc(C)c(S(=O)(=O)Nc2ccc(O)c(Sc3ncn[nH]3)c2)c1 | 13.1 µM
